Results: US12036218B2, “Modulators of airway basal cells for the treatment or prevention of lung diseases” (Fraunhofer Gesellschaft zur Förderung der angewandten …, priority 2020, dated 2024)

How the values were obtained:
IPF-ABC [1] = assay: Human 3D bronchosphere assay, IPF-ABC single culture: bronchosphere formation; assay type: cell-based; details: IPF-ABC cultured in 3D, 21 days
Description: (§1) FIG. 5: SRC-inhibitor saracatinib abrogates bronchosphere formation. (A-E) Bronchosphere assays of human IPF-ABCs were performed w/wo IPF lung fibroblasts for 21 days. Cell cultures (n=12, in triplicates) were treated with either vehicle, saracatinib (600, 210, 75, 25, 8 nM), pirfenidone (1 mM) or nintedanib (1 μM). […] (G, H) In the same model we used GFP^+ fibroblasts to study fibroblast proliferation. […] For statistical comparison repeated measures ANOVA with Tukey correction for multiple testing was used.
(§2) Based on the Connectivity MAP predictions, the inventors tested whether saracatinib, a known SRC inhibitor previously tested in human cancer is able to modulate IPF-ABC phenotype. […] The results were similar in cells obtained from 12 different individuals with IPF (P<0.0001, FIG. 5B). […] Similar data were obtained by testing cell proliferation in the MTT assay (P<0.0001, FIG. 5C).
(§3) ABCs, either derived from IPF patients or HV, were cultured in matrigel (Corning) in a transwell system with or without lung fibroblasts either derived from patients with IPF or normal lung for 21 days (if not otherwise indicated) in the incubator (5% CO2, 37° C.). Medium exchange (BEGM (Lonza, Basel, Switzerland, #CC-3170)/DMEM (Dulbecco's Modified Eagle Medium (Gibco, Swit Fisher Scientific/Germany); ratio 1:1) was done every 7 days. In some experiments lentiviral transduced GFP expressing fibroblasts were used. Conditioned medium of the 3D organoid culture (day 7 and day 14) was used for ELISA and fibroblast stimulation experiments. Sircol assay (Scientific-Biocolor/UK, #S1000) was performed as recommended by the manufacturer on matrigel and conditioned medium harvested after 6 weeks of cell culture. Bronchosphere formation was documented by Axio Vert.A1/Zeiss/Germany and Axio Observer Z1/Zeiss/Germany. For histology, immunohistology and confocal laser microscopy 3D cell cultures were cryopreserved using Tissue-Tek and cryomolds (Hartenstein/Germany; #CMM). Detailed information is given in the supplement.

[2] = tested on: IPF-ABC with lung fibroblasts; assay: 3D co-culture model of IPF-ABC with lung fibroblasts: bronchosphere formation; assay type: cell-based, human
Description: as §1, §2, §3

IPF-ABC [3] = assay: MTT cell proliferation assay in IPF-ABC 3D culture; assay type: cell-based, human; details: IPF-ABCs without fibroblasts, 21 days; saracatinib 600-8 nM, pirfenidone 1 mM, nintedanib 1 μM
Description: as §1, §2, §3

[4] = tested on: IPF-ABC with IPF lung fibroblasts; assay: MTT cell proliferation assay in IPF-ABC / IPF lung fibroblast co-culture; assay type: cell-based, human; details: in the presence of IPF lung fibroblasts, 21 days; saracatinib 600-8 nM, pirfenidone 1 mM, nintedanib 1 μM
Description: as §1, §3

lung fibroblasts = assay: Fibroblast proliferation (GFP+ fibroblasts) in IPF-ABC co-culture; assay type: cell-based, human; details: GFP+ fibroblasts co-cultured with IPF-ABC
Description: as §1, §2
ABCs, either derived from IPF patients or HV, were cultured in matrigel (Corning) in a transwell system with or without lung fibroblasts either derived from patients with IPF or normal lung for 21 days (if not otherwise indicated) in the incubator (5% CO2, 37° C.). […]

NRG mice = assay: Humanized pulmonary fibrosis model: bleomycin plus intratracheal human IPF-ABCs in NRG mice; assay type: in vivo
Description: FIG. 6: SRC-inhibitor saracatinib attenuates fibrosis in the humanized mouse model. NRG mice were intratracheally injected with a low dose of bleomycin and 3 days later with human ABCs derived from IPF patients. Mice (n=11 each group, 4 replicates (all data shown)) were treated oropharyngeally with or without saracatinib in a dose of 10 mg/kg once daily starting at day 4 (A-C) or at day 8 (D-F). […] All P values were determined by a paired comparison (t-test) testing the effect of saracatinib treatment for each human IPF cell line.
To test the effect of saracatinib on IPF-ABC induced fibrosis and remodeling in-vivo, the inventors returned to the minimal injury xenotransplant model in NRG mice. Overall, the inventors used IPF-ABCs from 38 different individuals with IPF in these experiments. Per IPF subject, IPF-ABCs were used in two animals, one treated with saracatinib and one with vehicle control, to account for interindividual variability. To test the effect of saracatinib on engraftment and development of fibrosis we started treatment at day 4 post injury, one day post IPF-ABC installation for a total of 18 days (FIG. 6A). […] To test the effect of saracatinib on established fibrosis the inventors performed another set of experiments in which treatment was delayed to day 8 when cell engraftment and fibrosis were already established.
Different mice strains were used for the experiments as indicated. B6;129Sv-Rag2tm1Fwa/ZTM (75) (Rag2−/−) and NOD.Cg-Rag1tm1Mom Il2rgtm1Wjl/SzJZtm (76) (NRG) were obtained from the central animal facility (Hannover Medical School, Hannover). NOD.Cg-Prkdcscid Il2rgtm1Wjl Tg(CAGGS-VENUS)1/Ztm (Venus-NSG) mice were kindly provided by Dr. Wiebke Garrels (Hannover Medical School). Mice received bleomycin dissolved in sterile saline at the dose of 1.2 mg/kg intratracheally on day 0. IPF-ABCs, HV-ABCs (Rag 2−/−: 0.3×105, NRG and NSG: 0.2×105) were injected intratracheally on day 3. In some experiments human IPF-ABCs transduced with a lentiviral vector encoding for GFP and luciferase were injected. Pairs of mice received the same IPF-ABC line and were later treated either with vehicle or saractinib (kindly provided by Leslie Cousens AstraZeneca) in a dose of 10 mg/kg, i.g. once daily. For histological and immunohistological analysis, the trachea was cannulated and lungs were insufflated with 4% paraformaldehyde in PBS at a pressure of 25 cm H2O, followed by removal of the heart and inflated lungs en bloc and immersion in 4% paraformaldehyde overnight at 4° C., and the tissues were processed to paraffin wax or were cryopreserved using Tissue Tek® O.C.T.™ compound. […] Collagen content was determined by quantifying hydroxyproline levels according to manufacturer's description. […]

ABCs = assay: Cellular vitality of ABCs; assay type: cell-based, human; details: all used concentrations (600, 210, 75, 25, 8 nM)
Description: as §2

[5] = pirfenidone 1 mM, nintedanib 1 μM
[6] = 10 mg/kg once daily oropharyngeal, treatment from day 4, read at day 21
[7] = 10 mg/kg once daily, treatment delayed to day 8 (day 8 to day 21), established fibrosis

Row | SMILES | bronchosphere formation (IPF-ABC [1]; [5]) | bronchosphere formation [2, 5] | cell proliferation as measured by MTI assay (IPF-ABC [3]) | cell proliferation as measured by the MTT assay [4] | bronchosphere formation (IPF-ABC [1]; saracatinib 600 nM, 210 nM, and 75 nM) | fibroblast proliferation in the co-culture (lung fibroblasts) | bronchosphere formation ([2]; saracatinib 8 nM) | bronchosphere formation ([2]; saracatinib 25 nM) | bronchosphere formation ([2]; saracatinib 600 nM, 210 nM and 75 nM) | Ashcroft score (NRG mice; [6]) | hydroxyproline/total-protein levels (NRG mice; [6]) | Ashcroft score (NRG mice; [7]) | hydroxyproline content (NRG mice; [7]) | cellular vitality of ABCs (ABCs)
1 | Cc1ccc(=O)n(-c2ccccc2)c1 [pirfenidone] | no visible effect | significantly reduced bronchosphere formation, but not completely | slightly | less reduced | – | – | – | – | – | – | – | – | – | –
2 | CN1CCN(CCOc2cc(OC3CCOCC3)c3c(Nc4c(Cl)ccc5c4OCO5)ncnc3c2)CC1 [saracatinib, N-(5-chloro-1,3-benzodioxol-4-yl)-7-[2-(4-methyl-1-piperazinyl)ethoxy]-5-[(tetrahydro-2H-pyran-4-yl]oxy)-4-quinazolinamine] | – | – | significantly reduced | significantly reduced | complete abrogation | substantially lower | did not have an effect | lower effect | completely blocked | 1.4±0.7 | 0.7±0.6 | significant reductions | significant reductions | did not affect
3 | COC(=O)c1ccc2c(c1)NC(=O)/C2=C(\Nc1ccc(N(C)C(=O)CN2CCN(C)CC2)cc1)c1ccccc1 [nintedanib] | no visible effect | significantly reduced bronchosphere formation, but not completely | slightly | less reduced | – | – | – | – | – | – | – | – | – | –
